Like-named read-outs stand apart in the source and are kept apart here.
How the values were obtained:
mouse 11β-HSD1 = molecular target: T1, mouse 11β-HSD1 (Mus musculus, UniProt P50172); assay: Enzyme inhibitory activity, mouse 11β-HSD1 (lysate of stably expressing CHO-K1 cells, cortisol by competitive ELISA); type: biochemical; settings: Table 2; mouse 11β-HSD1, cell lysate, 37° C. for 1 hour; read-out: m HSD1 in vitro assay (IC50 uM)
T1 construct: The obtained PCR products of about 0.9 kbp, 1.2 kbp, and 0.9 kbp were subcloned into an expression vector pcDNA3.1+/Zeo; expressed in transfected cells
Experimental: (§1) 1. Human 11β-HSD1-, Human 11β-HSD2- and Mouse 11β-HSD1-Gene Clonings and Establishment of Stably Expressing Cells
(§2) Human 11β-HSD1-, human 11β-HSD2-, and mouse 11β-HSD1-gene clonings were conducted using as a template a reverse transcription product of human-liver RNA, human-kidney RNA (CELL APPLICATIONS), and mouse-kidney RNA respectively, by means of PCR cloning with reference to nucleotide sequences of Genbank Accession Nos. NM_005525, NM_000196, and NM_008288. The obtained PCR products of about 0.9 kbp, 1.2 kbp, and 0.9 kbp were subcloned into an expression vector pcDNA3.1+/Zeo (Invitrogen).
(§3) Human 11β-HSD1- and human 11β-HSD2-expressing vectors were transfected into human kidney-derived cell line, HEK293 cells, using a transfection reagent, jet PEI (Funakoshi). Mouse 11β-HSD1 was transfected to Chinese hamster ovary-derived cell line, CHO-K1 cells. Selection was conducted with 200-400 μg/mL of zeocine (Invitrogen) to provide stably expressing-cell clones. The stably expressing cells were suspended in buffer solution A (20 mmol/L Tris-HCl, pH 7.4, 250 mmol/L sucrose, 1 mmol/L EGTA, 1 mmol/L EDTA, 1 mmol/L MgCl2), sonicated, and then stored at −80° C.
(§4) 2. Assay of Enzyme Inhibitory Activity
(§5) An enzymatic reaction was conducted using a polystyrene 96-well plate. Each well was added with 1 μL of a test agent dissolved in DMSO and then diluted (0.003 to 3 mmol/L), and further added with 10 μL of cell lysate diluted to a concentration of 0.1 mg/mL to 0.4 mg/mL. Next, 90 μL of buffer solution A containing substrate (100 nmol/L cortisone or cortisol) and coenzyme (400 μmol/L NADPH or NAD+) was added and the mixture was incubated at 37° C. for 1 hour. The enzymatic reaction was stopped by treating at 95° C. for 3 minutes. Cortisol that was present in the reaction solution was determined by a competitive ELISA shown below.
(§6) Anti-rabbit IgG antibody (Chemi-con) diluted to 2 μg/mL with carbonate buffer solution (pH 9.6) was added in 100 μL each to a 96-well immuno plate (Nunc) and immobilized by an incubation at 4° C. overnight. 50 μL of enzymatic reaction solution was put onto the plates, and further, anti-cortisol antibody (Cosmo Bio) and HRP-labeled cortisol (Cosmo Bio), diluted with buffer solution B (25 mmol/L Tris-HCl pH 7.4, 137 mmol/L NaCl, 2.68 mmol/L KCl), were added in 50 μL respectively and incubated at 4° C. overnight. After washed three times with buffer solution B containing 0.05% Tween 20, the plates were allowed to develop color by adding 100 μL of color reagent, TMB (Moss). The color reaction was stopped by 25 μL of 1 mol/L sulfuric acid and the absorbance was determined at 450 nm with a microplate reader (Molecular Device, VersaMax).
(§7) The values of human 11β-HSD1, human 11β-HSD2, and mouse 11β-HSD1 activities were subtracted from 100, and the resultant values were regarded as the respective 11β-HSD inhibition rates of example compounds. […] The comparison of human 11β-HSD1 and human 11β-HSD2 inhibiting activities is shown in Table 1, and the comparison of human 11β-HSD1 and mouse 11β-HSD1 inhibiting activities is shown in Table 2.

human 11β-HSD1 = molecular target: T2, human 11β-HSD1 (Homo sapiens, UniProt P28845); assay: Enzyme inhibitory activity, human 11β-HSD1 (lysate of stably expressing HEK293 cells, cortisol by competitive ELISA); type: biochemical; settings: human 11β-HSD1, cell lysate, 37° C. for 1 hour, read-out: h HSD1 in vitro assay (IC50 uM)
T2 construct: The obtained PCR products of about 0.9 kbp, 1.2 kbp, and 0.9 kbp were subcloned into an expression vector pcDNA3.1+/Zeo; expressed in transfected cells
Experimental: as §1, §2, §3, §4, §5, §6, §7

T2 sequence (P28845 whole entry): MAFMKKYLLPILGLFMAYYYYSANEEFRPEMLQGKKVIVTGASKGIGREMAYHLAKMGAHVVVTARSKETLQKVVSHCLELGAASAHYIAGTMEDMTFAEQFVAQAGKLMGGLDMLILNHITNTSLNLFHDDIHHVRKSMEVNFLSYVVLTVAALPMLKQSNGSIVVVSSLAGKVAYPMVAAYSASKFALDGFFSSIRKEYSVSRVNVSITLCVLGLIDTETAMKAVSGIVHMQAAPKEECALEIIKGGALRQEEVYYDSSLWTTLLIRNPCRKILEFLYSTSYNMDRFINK
T1 sequence (P50172 whole entry): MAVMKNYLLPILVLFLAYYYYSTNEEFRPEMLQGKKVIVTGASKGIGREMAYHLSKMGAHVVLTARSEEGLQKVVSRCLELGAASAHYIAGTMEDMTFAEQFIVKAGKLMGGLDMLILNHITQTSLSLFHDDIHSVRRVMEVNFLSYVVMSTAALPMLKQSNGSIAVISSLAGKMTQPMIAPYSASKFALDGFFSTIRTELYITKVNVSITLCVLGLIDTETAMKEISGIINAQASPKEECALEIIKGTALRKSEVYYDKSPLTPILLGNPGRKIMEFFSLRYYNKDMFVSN

Row | Compound | IC50 (mouse 11β-HSD1) [µM] | IC50 (human 11β-HSD1; Table 2) [µM] | IC50 (human 11β-HSD1; Table 1) [µM]
1 | CC1(C)C(=O)N([C@H]2C3CC4CC2C[C@](O)(C4)C3)N1Cc1cc(F)ccc1Cl [Example 67, trans-1-(2-chloro-5-fluorobenzyl)-2-(5-hydroxyadamantan-2-yl)-4,4-dimethyl-1,2-diazetidin-3-one] | 0.29 | 0.12 | –
2 | CC1(C)C(=O)N(C2CCCCCCC2)N1Cc1ccccc1Cl [Example 73, 1-(2-chlorobenzyl)-2-cyclooctyl-4,4-dimethyl-1,2-diazetidin-3-one] | 0.11 | 0.021 | –
3 | CC1(C)C(=O)N(C2CCCCCCC2)N1Cc1cc(Cl)ccc1Cl [Example 75, 2-cyclooctyl-1-(2,5-dichlorobenzyl)-4,4-dimethyl-1,2-diazetidin-3-one] | 0.15 | 0.038 | –
4 | CC1(C)C(=O)N(C2CC3CCC2C3)N1Cc1ccccc1Cl (stereo not shown) [Example 78, 2-(bicyclo[2.2.1]heptan-2-yl)-1-(2-chlorobenzyl)-4,4-dimethyl-1,2-diazetidin-3-one] | 0.64 | 0.15 | –
5 | CC1(C)C(=O)N(C2CC3CCC2C3)N1Cc1cccc(Cl)c1Cl (stereo not shown) [Example 79, 2-(bicyclo[2.2.1]heptan-2-yl)-1-(2,3-dichlorobenzyl)-4,4-dimethyl-1,2-diazetidin-3-one] | 0.36 | 0.22 | –
6 | CC1(C)C(=O)N(C2CC3CCC2C3)N1Cc1cc(Cl)ccc1Cl (stereo not shown) [Example 80, 2-(bicyclo[2.2.1]heptan-2-yl)-1-(2,5-dichlorobenzyl)-4,4-dimethyl-1,2-diazetidin-3-one] | 0.39 | 0.13 | –
7 | CC1(C)C(=O)N(C2CCCCCC2)N1Cc1ccccc1Cl [Example 83, 1-(2-chlorobenzyl)-2-cycloheptyl-4,4-dimethyl-1,2-diazetidin-3-one] | 0.66 | 0.092 | –
8 | CC1(C)C(=O)N(C2CCCCCC2)N1Cc1cccc(Cl)c1Cl [Example 84, 2-cycloheptyl-1-(2,3-dichlorobenzyl)-4,4-dimethyl-1,2-diazetidin-3-one] | 0.61 | 0.13 | –
9 | CC1(C)C(=O)N(C2CCCCCC2)N1Cc1cc(Cl)ccc1Cl [Example 85, 2-cycloheptyl-1-(2,5-dichlorobenzyl)-4,4-dimethyl-1,2-diazetidin-3-one] | 0.37 | 0.053 | –
10 | CC1(C)C(=O)N(C2CCCCCC2)N1Cc1ccc(F)cc1Cl [Example 86, 1-(2-chloro-4-fluorobenzyl)-2-cycloheptyl-4,4-dimethyl-1,2-diazetidin-3-one] | 0.49 | 0.14 | –
11 | CC1(C)C(=O)N(C2CCCCCC2)N1Cc1cc(F)ccc1Cl [Example 87, 1-(2-chloro-5-fluorobenzyl)-2-cycloheptyl-4,4-dimethyl-1,2-diazetidin-3-one] | 0.85 | 0.1 | –
12 | CC1(C)C(=O)N(C2C3CC4CC2CC(C(N)=O)(C4)C3)N1Cc1ccccc1Cl (stereo not shown) [Example 95, 4-[2-(2-chlorobenzyl)-3,3-dimethyl-4-oxo-1,2-diazetidin-1-yl]adamantane-1-carboxamide] | 0.35 | 0.13 | –
13 | CC1(C)C(=O)N(C2C3CC4CC(C3)CC2C4)N1C(=O)c1ccccc1 (stereo not shown) [Example 96, 4,4-dimethyl-1-(phenylcarbonyl)-2-(adamantan-2-yl)-1,2-diazetidin-3-one] | 0.22 | 0.8 | –
14 | CC1(C)C(=O)N(C2C3CC4CC(C3)CC2C4)N1C(=O)c1ccc(Br)cc1 (stereo not shown) [Example 106, 1-[(4-bromophenyl)carbonyl]-4,4-dimethyl-2-(adamantan-2-yl)-1,2-diazetidin-3-one] | 0.17 | 0.75 | –
15 | Cc1cccc(C(=O)N2N(C3C4CC5CC(C4)CC3C5)C(=O)C2(C)C)c1 (stereo not shown) [Example 109, 4,4-dimethyl-1-[(3-methylphenyl)carbonyl]-2-(adamantan-2-yl)-1,2-diazetidin-3-one] | 0.2 | 0.75 | –
16 | CC1(C)C(=O)N(C2C3CC4CC(C3)CC2C4)N1C(=O)c1cccc(Br)c1 (stereo not shown) [Example 113, 1-[(3-bromophenyl)carbonyl]-4,4-dimethyl-2-(adamantan-2-yl)-1,2-diazetidin-3-one] | 0.12 | 0.42 | –
17 | Cc1ccc(C(=O)N2N(C3C4CC5CC(C4)CC3C5)C(=O)C2(C)C)cc1 (stereo not shown) [Example 114, 4,4-dimethyl-1-[(4-methylphenyl)carbonyl]-2-(adamantan-2-yl)-1,2-diazetidin-3-one] | 0.11 | 0.54 | –
18 | Cc1ccccc1C(=O)N1N(C2C3CC4CC(C3)CC2C4)C(=O)C1(C)C (stereo not shown) [Example 116, 4,4-dimethyl-1-[(2-methylphenyl)carbonyl]-2-(adamantan-2-yl)-1,2-diazetidin-3-one] | 0.15 | – | 0.13
19 | CC1(C)C(=O)N(C2C3CC4CC(C3)CC2C4)N1C(=O)c1cc(Cl)cc(Cl)c1 (stereo not shown) [Example 117, 1-[(3,5-dichlorophenyl)carbonyl]-4,4-dimethyl-2-(adamantan-2-yl)-1,2-diazetidin-3-one] | 0.39 | 0.98 | –
20 | Cc1ccc(F)cc1C(=O)N1N(C2C3CC4CC(C3)CC2C4)C(=O)C1(C)C (stereo not shown) [Example 125, 1-[(5-fluoro-2-methylphenyl)carbonyl]-4,4-dimethyl-2-(adamantan-2-yl)-1,2-diazetidin-3-one] | 0.42 | – | 0.47
21 | CC1(C)C(=O)N(C2C3CC4CC(C3)CC2C4)N1C(=O)c1cccc(Cl)c1 (stereo not shown) [Example 128, 1-[(3-chlorophenyl)carbonyl]-4,4-dimethyl-2-(adamantan-2-yl)-1,2-diazetidin-3-one] | 0.1 | – | 0.5
22 | CC1(C)C(=O)N(C2C3CC4CC(C3)CC2C4)N1C(=O)c1ccc2c(c1)OCO2 (stereo not shown) [Example 135, 1-(1,3-benzodioxol-5-ylcarbonyl)-4,4-dimethyl-2-(adamantan-2-yl)-1,2-diazetidin-3-one] | 0.11 | 0.76 | –
23 | CC1(C)C(=O)N(C2C3CC4CC(C3)CC2C4)N1C(=O)c1ccccc1O (stereo not shown) [Example 138, 1-[(2-hydroxyphenyl)carbonyl]-4,4-dimethyl-2-(adamantan-2-yl)-1,2-diazetidin-3-one] | 0.24 | – | 0.22
24 | CC1(C)C(=O)N(C2C3CC4CC(C3)CC2C4)N1C(=O)c1ccc(N)cc1 (stereo not shown) [Example 139, 1-[(4-aminophenyl)carbonyl]-4,4-dimethyl-2-(adamantan-2-yl)-1,2-diazetidin-3-one] | 0.36 | – | 0.79
25 | CC1(C)C(=O)N(C2CCCCCCC2)N1C(=O)c1cccc(Cl)c1 [Example 150, 1-[(3-chlorophenyl)carbonyl]-2-cyclooctyl-4,4-dimethyl-1,2-diazetidin-3-one] | 0.43 | – | 0.84
26 | Cc1cccc(C(=O)N2N(C3CCCCCCC3)C(=O)C2(C)C)c1 [Example 151, 2-cyclooctyl-4,4-dimethyl-1-[(3-methylphenyl)carbonyl]-1,2-diazetidin-3-one] | 0.3 | – | 0.81
27 | Cc1ccccc1C(=O)N1N(C2CCCCCCC2)C(=O)C1(C)C [Example 152, 2-cyclooctyl-4,4-dimethyl-1-[(2-methylphenyl)carbonyl]-1,2-diazetidin-3-one] | 0.54 | – | 0.23
28 | CC1(C)C(=O)N(C2CCCCCCC2)N1C(=O)c1ccccc1N [Example 153, 1-[(2-aminophenyl)carbonyl]-2-cyclooctyl-4,4-dimethyl-1,2-diazetidin-3-one] | 0.032 | – | 0.14
29 | Cc1c(F)cccc1C(=O)N1N(C2C3CC4CC(C3)CC2C4)C(=O)C1(C)C (stereo not shown) [Example 157, 1-[(3-fluoro-2-methylphenyl)carbonyl]-4,4-dimethyl-2-(adamantan-2-yl)-1,2-diazetidin-3-one] | 0.15 | – | 0.44
